Measured values: article PMC5750218, “Protein-inspired antibiotics active against vancomycin- and daptomycin-resistant bacteria” (Nature Communications, 2018)
In brackets after ≈: the same amount, converted by molar mass. Read-outs that look alike come from different tables or passages of the source.

Columns and labels:
Cytotoxicity MTT assay [1] = assay type: cell-based, human; details: human
Outline: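 HepG2 and HEK293 cells, 1.5 × 10^4 per well in DMEM with 1% FBS, were allowed to attach for 24 h, then exposed 24 h at 37 °C to compounds at 100 µM to 0.046 µM in threefold steps. MTT (0.4 mg mL^−1) was added for 2 h, and formazan in DMSO was read at 570 nm. Viability is given as percent of control, corrected for a positive control.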

[2] = system: Methicillin-resistant S. aureus ATCC 43300; experiment: microbe, parasite or virus in culture; details: for MIC MRSA: ATCC 43300, 24 h
Outline: (§1)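 Growth inhibition measured by broth microdilution (MHB, 37 °C, 24 h incubation). MIC defined visually as the lowest inhibitory concentration.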

[3] = system: Vancomycin-resistant S. aureus NARSA VRS4; experiment: microbe, parasite or virus in culture; assay type: cell-based, Staphylococcus aureus; details: Staphylococcus aureus, VRSA, read-out: MIC VRSA
[4] = system: S. pneumoniae ATCC 700677 MDR; experiment: microbe, parasite or virus in culture; assay type: cell-based, Streptococcus pneumoniae; details: Streptococcus pneumoniae, ATCC700677, 24 h
Method: (§2) The compounds, along with standard antibiotics were serially diluted twofold across the wells of 96-well non-binding surface (NBS) polystyrene plates (Corning 3641). […] Standards ranged from 64 to 0.03 µg mL^−1 and compounds from 8 to 0.003 µg mL^−1 with final assay volumes of 100 µL per well. Gram-positive bacteria were cultured in Mueller Hinton broth (MHB) (Bactolaboratories, Cat. no. 211443) at 37 °C overnight. A sample of each culture was then diluted 40-fold in fresh MHB and incubated at 37 °C for 2–3 h. The resultant mid-log phase cultures were added to the compound-containing 96-well plates to give a final cell density of 5 × 10^5 colony forming unit (CFU) mL^−1. All the plates were covered and incubated at 37 °C for 24 h. MICs were the lowest concentration showing no visible growth.

S. pneumoniae ATCC 33400 = experiment: microbe, parasite or virus in culture; assay type: cell-based, Streptococcus pneumoniae; details: Streptococcus pneumoniae, ATCC33400, 24 h
Method: as §2

[5] = system: S. aureus ATCC 43300 MRSA; experiment: microbe, parasite or virus in culture; assay type: cell-based, Staphylococcus aureus; details: Staphylococcus aureus, 24 h
Method: as §2

[6] = system: Vancomycin-resistant (VanA) Enterococcus faecium ATCC 51559; experiment: microbe, parasite or virus in culture; details: for MIC VRE: ATCC 51559
Outline: as §1

[7] = system: Vancomycin-intermediate S. aureus NRS1; experiment: microbe, parasite or virus in culture; details: for MIC VISA: Vancomycin-intermediate NRS1
Outline: as §1

[8] = system: Multi-drug-resistant S. pneumoniae ATCC 700677; experiment: microbe, parasite or virus in culture; details: for MIC MDR S.P.: ATCC 700677
Outline: as §1

Cytotoxicity MTT assay [9] = assay type: cell-based, human; details: human; remark: listed apart in the source
[10] = 37 °C, 20 µM
in vitro = details: human, 50% human plasma (pooled, sodium heparin) in PBS, pH 7.4
[11] = system: Bacillus subtilis ATCC 6633; experiment: microbe, parasite or virus in culture; assay type: cell-based
Method: All compounds were dissolved in H2O. Bacillus subtilis ATCC® 6633™ NRS-231 was cultured in MHB at 37 °C for 48 h. A sample of each culture was then diluted 40-fold in fresh MHB and incubated at 37 °C for 18 h. Compounds were added to each row of 96-well NBS plates (NBS, Corning 3641), in duplicate. The tripeptide N,N΄-diacetyl-L-Lys-D-Ala-D-Ala was serially diluted twofold across the compound-containing wells from 6400 to 3 µg mL^−1. To this the resultant mid-log phase cultures were diluted to the final concentration of 5 × 10^5 CFU mL^−1, then added to wells of the compound-containing plates. All the plates were covered and incubated at 37 °C for 24 h.

Compound	CC50 at 24 h (Cytotoxicity MTT assay [1])	MIC MRSA [2]	% compound remaining after incubation in 50% human plasma, 0h [10]	remaining at 1 h, 20 µM (in vitro)	remaining at 3 h, 20 µM (in vitro)	remaining at 6 h, 20 µM (in vitro)	remaining at 24 h, 20 µM (in vitro)	MIC VRE [6]	MIC VISA [7]	MIC MDR S.P. [8]	CC50 at 24 h (Cytotoxicity MTT assay [9])	other results
CCCCCCCCCCNCCN[C@@]1(C)C[C@H](O[C@H]2[C@H](Oc3c4cc5cc3Oc3ccc(cc3Cl)[C@@H](O)[C@@H](NC(=O)[C@@H](CC(C)C)NC)C(=O)N[C@@H](CC(N)=O)C(=O)N[C@H]5C(=O)N[C@H]3C(=O)N[C@H](C(=O)N[C@H](C(=O)O)c5cc(O)c(CNCP(=O)(O)O)c(O)c5-c5cc3ccc5O)[C@H](O)c3ccc(c(Cl)c3)O4)O[C@H](CO)[C@@H](O)[C@@H]2O)O[C@@H](C)[C@H]1O [Compound 2, Telavancin]	–	–	–	–	–	–	–	–	–	–	–	CC50 at 24 h (Cytotoxicity MTT assay [1]; 24 h, MTT, 1% FBS, read-out: Cytotoxicity CC50 HEK293): > 100 µM; MIC ([2]; Staphylococcus aureus, ATCC43300|MRSA, 24 h, read-out: MIC MRSA, S. aureus ATCC 43300, NBS plates, MHB, 24 h, substance alone): 0.03 µg/mL (≈ 0.0171 µM); MIC [3]: 1 µg/mL (≈ 0.57 µM); MIC ([4]; read-out: MIC S. pneumoniae ATCC 700677 MDR, 1% Survanta): 0.06 to 0.125 µg/mL (≈ 0.0342 to 0.0712 µM); MIC ([4]; read-out: MIC S. pneumoniae ATCC 700677 MDR, 5% Survanta): 0.25 µg/mL (≈ 0.142 µM); MIC ([4]; read-out: MIC S. pneumoniae ATCC 700677 MDR, no added Survanta): 0.06 to 0.125 µg/mL (≈ 0.0342 to 0.0712 µM); MIC (S. pneumoniae ATCC 33400; read-out: MIC S. pneumoniae ATCC 33400, 1% Survanta): 0.25 µg/mL (≈ 0.142 µM); MIC (S. pneumoniae ATCC 33400; read-out: MIC S. pneumoniae ATCC 33400, 5% Survanta): 0.5 µg/mL (≈ 0.285 µM); MIC (S. pneumoniae ATCC 33400; read-out: MIC S. pneumoniae ATCC 33400, no added Survanta): 0.125 to 0.25 µg/mL (≈ 0.0712 to 0.142 µM); MIC ([5]; read-out: MIC S. aureus ATCC 43300 MRSA, 1% Survanta): 0.126 µg/mL (≈ 0.0715 µM); MIC ([5]; read-out: MIC S. aureus ATCC 43300 MRSA, 5% Survanta): 0.25 to 0.5 µg/mL (≈ 0.142 to 0.285 µM); MIC ([5]; read-out: MIC S. aureus ATCC 43300 MRSA, no added Survanta): 0.125 µg/mL (≈ 0.0712 µM); MIC ([6]; Enterococcus faecium, ATCC51559 / VRE, read-out: MIC VRE): 2 µg/mL (≈ 1.14 µM); MIC ([7]; Staphylococcus aureus, NRS1 / VISA, read-out: MIC VISA): 0.25 µg/mL (≈ 0.142 µM); MIC ([8]; Streptococcus pneumoniae, ATCC700677, read-out: MIC MDR S.P.): 0.06 µg/mL (≈ 0.0342 µM); CC50 at 24 h (Cytotoxicity MTT assay [9]; 24 h, MTT, 1% FBS, read-out: Cytotoxicity CC50 HepG2): > 100 µM
CCCCCCCCCCCCCC(=O)N[C@@H](CCCCN)C(=O)N[C@@H](CCCCN)C(=O)N[C@@H](CCCCN)C(=O)N[C@@H](CSSCCNC(=O)[C@H]1NC(=O)[C@H]2NC(=O)[C@H](NC(=O)[C@@H]3NC(=O)[C@H](CC(N)=O)NC(=O)[C@H](NC(=O)[C@@H](CC(C)C)NC)[C@H](O)c4ccc(c(Cl)c4)Oc4cc3cc(c4O[C@@H]3O[C@H](CO)[C@@H](O)[C@H](O)[C@H]3O[C@H]3C[C@](C)(N)[C@H](O)[C@H](C)O3)Oc3ccc(cc3Cl)[C@H]2O)c2ccc(O)c(c2)-c2c(O)cc(O)cc21)C(=O)O [Compound 15, nC13CO-KKKC(SCH 2 CH 2 NH-Vancomycin)-OH]	18 µM	<0.003 µg/mL	100%	77%	64%	51%	3%	0.02 µg/mL (≈ 0.009 µM)	0.02 µg/mL (≈ 0.009 µM)	<0.003 µg/mL	11 µM	–
CCCCCCCCCCC(=O)N[C@@H](CCCCNC(=O)[C@H]1NC(=O)[C@H]2NC(=O)[C@H](NC(=O)[C@@H]3NC(=O)[C@H](CC(N)=O)NC(=O)[C@H](NC(=O)[C@@H](CC(C)C)NC)[C@H](O)c4ccc(c(Cl)c4)Oc4cc3cc(c4O[C@@H]3O[C@H](CO)[C@@H](O)[C@H](O)[C@H]3O[C@H]3C[C@](C)(N)[C@H](O)[C@H](C)O3)Oc3ccc(cc3Cl)[C@H]2O)c2ccc(O)c(c2)-c2c(O)cc(O)cc21)C(=O)O [Compound 20, nC10CO-K(Vancomycin)-OH]	> 500 µM	0.125 µg/mL (≈ 0.0716 µM)	100%	101%	101%	100%	89%	>8 µg/mL	1.5 µg/mL (≈ 0.859 µM)	0.19 µg/mL (≈ 0.109 µM)	> 500 µM	Ac2Kaa concentration required to neutralise MIC activity ([11]; ATCC 6633, 48 h): 12.5 µg/mL; MIC ([11]; ATCC 6633, 48 h): 0.03 µg/mL (≈ 0.0172 µM); Molar excess of Ac2Kaa ligand required to antagonise antibacterial activity ([11]; [ligand]/[antibiotic], B. subtilis ATCC 6633, 24 h): 663
